inhibition, IC50 and Activity data for 22 compounds are collected here from ChEMBL document CHEMBL4406886, “Discovery of arylamide-5-anilinoquinazoline-8-nitro derivatives as VEGFR-2 kinase inhibitors: Synthesis, in vitro biological evaluation and molecular docking” (Bioorg Med Chem Lett, 2019).

Molecules are shown by their SMILES. The source made the active and inactive calls. The calls are words filed in the database; no cut-off is given here. Bounds are passed on as bounds.

In experiment [1] the target is Epidermal growth factor receptor (Homo sapiens) (UniProt P00533). Nature of the experiment: Inhibition of EGFR (unknown origin) at 1 uM using poly (Glu,Tyr) 4:1 as substrate measured after 1 hr in presence of ATP by spectrophotometric analysis relative to control.
The subject of the next experiment is HUVEC. Nature of the experiment: Antiproliferative activity against human HUVEC cells expressing VEGFR2 assessed as cell growth inhibition measured after 48 hrs by MTT assay. The format is functional, cell-based.
For another experiment, the system named is HepG2. Nature of the experiment: Antiproliferative activity against human HepG2 cells expressing VEGFR2 assessed as cell growth inhibition measured after 48 hrs by MTT assay. Conditions: HepG2, 48 h. Format: functional, cell-based.
A further experiment has as its system A549. Nature of the experiment: Antiproliferative activity against human A549 cells expressing EGFR assessed as cell growth inhibition measured after 48 hrs by MTT assay. Format: functional, cell-based. Conditions: A549, 48 h.
The test system of another experiment is MDA-MB-231. Nature of the experiment: Antiproliferative activity against human MDA-MB-231 cells expressing EGFR assessed as cell growth inhibition measured after 48 hrs by MTT assay. The following applies: MDA-MB-231, 48 h. Format: functional, cell-based.
The test system of the next experiment is L02. Nature of the experiment: Cytotoxicity against human LO2 cells. Format: cell-based.
A further experiment has as its system Chorioallantoic membrane. Nature of the experiment: Antiangiogenic activity in chicken fertilized egg chorioallantoic membrane assessed as decrease in blood vessel growth at 10 nM measured after 48 hrs by microscopic analysis. The format is functional, tissue-based. The following applies: Gallus gallus.
For experiment [2], the target named is Vascular endothelial growth factor receptor 2 (Homo sapiens, UniProt P35968). The following applies: at 1 µM.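 Further: kinase assay using poly(Glu,Tyr) 4:1 substrate plus ATP, spectrophotometric read-out after 1 h, inhibition expressed against control.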
Sequence of Vascular endothelial growth factor receptor 2 (P35968 whole entry): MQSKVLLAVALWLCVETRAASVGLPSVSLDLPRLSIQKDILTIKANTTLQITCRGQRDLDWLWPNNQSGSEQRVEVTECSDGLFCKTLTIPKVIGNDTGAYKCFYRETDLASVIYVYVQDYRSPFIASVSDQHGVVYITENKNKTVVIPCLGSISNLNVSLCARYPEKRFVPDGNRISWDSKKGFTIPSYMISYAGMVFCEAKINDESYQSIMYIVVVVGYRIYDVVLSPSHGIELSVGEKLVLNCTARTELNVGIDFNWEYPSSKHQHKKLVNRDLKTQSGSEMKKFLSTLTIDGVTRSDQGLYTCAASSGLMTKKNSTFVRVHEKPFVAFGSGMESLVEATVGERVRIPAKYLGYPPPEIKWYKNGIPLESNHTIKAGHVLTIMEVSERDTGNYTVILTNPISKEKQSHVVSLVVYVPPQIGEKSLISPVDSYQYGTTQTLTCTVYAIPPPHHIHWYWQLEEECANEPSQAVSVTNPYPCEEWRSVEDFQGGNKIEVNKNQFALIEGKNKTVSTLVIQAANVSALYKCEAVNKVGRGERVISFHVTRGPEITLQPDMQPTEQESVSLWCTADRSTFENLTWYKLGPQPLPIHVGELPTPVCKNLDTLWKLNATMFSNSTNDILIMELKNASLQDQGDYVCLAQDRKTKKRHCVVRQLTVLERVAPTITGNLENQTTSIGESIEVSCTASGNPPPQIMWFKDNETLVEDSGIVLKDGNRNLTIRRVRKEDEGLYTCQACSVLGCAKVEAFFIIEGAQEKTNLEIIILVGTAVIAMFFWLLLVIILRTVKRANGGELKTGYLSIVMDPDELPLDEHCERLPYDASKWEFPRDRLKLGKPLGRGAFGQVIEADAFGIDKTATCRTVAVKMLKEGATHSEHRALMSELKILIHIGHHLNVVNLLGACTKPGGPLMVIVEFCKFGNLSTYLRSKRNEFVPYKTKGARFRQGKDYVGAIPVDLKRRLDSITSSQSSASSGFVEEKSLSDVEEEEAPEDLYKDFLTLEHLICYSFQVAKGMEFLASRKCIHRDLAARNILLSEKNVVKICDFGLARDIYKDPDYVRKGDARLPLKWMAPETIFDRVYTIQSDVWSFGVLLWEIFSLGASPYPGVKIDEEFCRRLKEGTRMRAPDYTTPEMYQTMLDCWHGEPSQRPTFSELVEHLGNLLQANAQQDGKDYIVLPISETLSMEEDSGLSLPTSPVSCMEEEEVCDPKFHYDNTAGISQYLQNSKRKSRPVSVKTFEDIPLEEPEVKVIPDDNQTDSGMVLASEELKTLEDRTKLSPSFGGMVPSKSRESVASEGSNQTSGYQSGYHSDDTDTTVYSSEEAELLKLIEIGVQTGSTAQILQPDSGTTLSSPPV
Description: Inhibition of VEGFR2 (unknown origin) at 1 uM using poly (Glu,Tyr) 4:1 as substrate measured after 1 hr in presence of ATP by spectrophotometric analysis relative to control

Sequence of Epidermal growth factor receptor (Homo sapiens) (P00533 whole entry): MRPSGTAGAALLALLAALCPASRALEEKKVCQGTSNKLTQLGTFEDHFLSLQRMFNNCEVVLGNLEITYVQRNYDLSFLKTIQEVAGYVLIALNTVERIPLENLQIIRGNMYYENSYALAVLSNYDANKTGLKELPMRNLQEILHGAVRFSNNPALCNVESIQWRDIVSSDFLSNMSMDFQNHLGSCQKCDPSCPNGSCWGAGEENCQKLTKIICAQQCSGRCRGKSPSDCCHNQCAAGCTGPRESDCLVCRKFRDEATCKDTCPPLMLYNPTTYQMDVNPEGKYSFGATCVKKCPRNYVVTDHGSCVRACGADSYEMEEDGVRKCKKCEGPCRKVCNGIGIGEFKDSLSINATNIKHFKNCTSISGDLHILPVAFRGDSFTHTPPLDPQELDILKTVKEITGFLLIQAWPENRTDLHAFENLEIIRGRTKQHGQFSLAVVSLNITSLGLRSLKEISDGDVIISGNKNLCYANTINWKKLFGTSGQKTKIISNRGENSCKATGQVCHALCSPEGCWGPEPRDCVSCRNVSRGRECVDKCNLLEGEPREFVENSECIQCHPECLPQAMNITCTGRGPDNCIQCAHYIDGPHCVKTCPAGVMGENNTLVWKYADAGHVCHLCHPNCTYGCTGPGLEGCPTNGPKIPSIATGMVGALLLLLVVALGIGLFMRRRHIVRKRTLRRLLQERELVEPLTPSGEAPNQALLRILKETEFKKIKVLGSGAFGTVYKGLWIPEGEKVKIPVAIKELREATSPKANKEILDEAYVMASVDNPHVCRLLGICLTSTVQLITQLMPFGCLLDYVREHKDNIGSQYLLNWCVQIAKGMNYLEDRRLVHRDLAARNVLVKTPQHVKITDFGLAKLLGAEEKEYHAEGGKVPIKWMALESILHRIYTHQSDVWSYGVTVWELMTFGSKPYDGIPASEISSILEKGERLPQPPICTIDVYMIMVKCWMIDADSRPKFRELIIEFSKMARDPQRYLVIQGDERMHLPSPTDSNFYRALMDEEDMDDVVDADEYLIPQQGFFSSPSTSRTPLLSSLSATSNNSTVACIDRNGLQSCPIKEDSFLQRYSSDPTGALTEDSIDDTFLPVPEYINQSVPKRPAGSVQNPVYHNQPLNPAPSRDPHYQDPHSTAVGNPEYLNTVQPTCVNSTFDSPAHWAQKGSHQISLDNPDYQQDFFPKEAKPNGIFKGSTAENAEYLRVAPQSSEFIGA

Consider `Cc1ccc(C(=O)Nc2ccc(Nc3ccc([N+](=O)[O-])c4ncnc(O)c34)cc2)cc1`, for which the inhibition in experiment [1] stood at 57.2%; in experiment [2], 83.7%. The IC50 with HUVEC was 14.3 µM; in the experiment with HepG2, 18.5 µM; in the experiment with A549, > 100 µM; in the experiment on MDA-MB-231, 94.7 µM; in the experiment on L02, 93.2 µM. Moreover, in the experiment on Chorioallantoic membrane, the outcome was Active.

In the case of `Cc1ccccc1C(=O)Nc1cccc(Nc2ccc([N+](=O)[O-])c3ncnc(O)c23)c1`, the inhibition in experiment [1] amounted to 6.4%; in experiment [2], 21.6%. For the same compound, the IC50 with HUVEC was 89.6 µM; with HepG2 it was 90.3 µM; in the experiment on A549, > 100 µM; in the experiment with MDA-MB-231, > 100 µM.

With `O=C(Nc1cccc(Nc2ccc([N+](=O)[O-])c3ncnc(O)c23)c1)c1ccccc1Cl`, the inhibition stood at 22.5% in experiment [1] and 30.1% in experiment [2]. Also, the IC50 is 74.6 µM with HUVEC, 71.9 µM in the experiment with HepG2, > 100 µM with A549 and > 100 µM in the experiment on MDA-MB-231.

With `O=C(Nc1ccc(Nc2ccc([N+](=O)[O-])c3ncnc(O)c23)cc1)c1cccc(Cl)c1`, the values for the inhibition in experiment [1] and in experiment [2] were 27.7% and 63.2%, respectively. Further, the IC50 in the experiment with HUVEC is 36.7 µM; with HepG2, 42 µM; with A549 it was > 100 µM; with MDA-MB-231 it was > 100 µM. For the same compound, in the experiment with Chorioallantoic membrane, the result was Active.

Regarding `Cc1ccc(C(=O)Nc2ccc(CN3CCN(C)CC3)c(C(F)(F)F)c2)cc1C#Cc1cnc2cccnn12` [PONATINIB], the IC50 worked out at 0.5 µM with HUVEC; 0.6 µM with HepG2; 5.3 µM in the experiment with A549; 10.5 µM in the experiment on MDA-MB-231; 64.7 µM with L02.

With `O=C(Nc1cccc(Nc2ccc([N+](=O)[O-])c3ncnc(O)c23)c1)c1ccc(Cl)cc1`, the inhibition worked out at 9.4% in experiment [1] and 38.5% in experiment [2]. Also, the IC50 in the experiment with HUVEC is 73.8 µM; with HepG2 it was 76.3 µM; with A549, > 100 µM; in the experiment with MDA-MB-231 it was > 100 µM.

In the case of `O=C(Nc1ccc(Nc2ccc([N+](=O)[O-])c3ncnc(O)c23)cc1)c1cccc(F)c1`, the figures for the inhibition in experiment [1] and in experiment [2] were 36.9% and 69.4%, respectively. Besides, the IC50 with HUVEC is 38.9 µM; in the experiment with HepG2, 36.1 µM; in the experiment with A549 it was 83.3 µM; in the experiment on MDA-MB-231, > 100 µM. Moreover, the outcome with Chorioallantoic membrane was Active.

On to `Cc1cccc(C(=O)Nc2ccc(Nc3ccc([N+](=O)[O-])c4ncnc(O)c34)cc2)c1`, for which the inhibition stood at 37.8% in experiment [1] and 58.2% in experiment [2]. Also, the concentration for half-maximal inhibition (IC50) in the experiment with HUVEC is 47 µM; in the experiment on HepG2, 40.8 µM; in the experiment with A549 it was > 100 µM; in the experiment with MDA-MB-231 it was > 100 µM.

Consider `O=C(Nc1ccc(Nc2ccc([N+](=O)[O-])c3ncnc(O)c23)cc1)c1ccccc1Cl`, for which the inhibition in experiment [1] is 50.3%; in experiment [2] it was 76.9%. The IC50 in the experiment on HUVEC came to 26.5 µM; in the experiment with HepG2 it was 28 µM; in the experiment on A549 it was 90.3 µM; in the experiment with MDA-MB-231, 96.1 µM. In addition, in the experiment with Chorioallantoic membrane, the outcome was Active.

On to `O=C(Nc1ccc(Nc2ccc([N+](=O)[O-])c3ncnc(O)c23)cc1)c1ccccc1F`, for which the results for the inhibition in experiment [1] and in experiment [2] were 42.1% and 73.8%, respectively. For the same compound, the IC50 in the experiment on HUVEC turned out to be 23.8 µM; in the experiment on HepG2, 21 µM; in the experiment on A549, 85.8 µM; in the experiment with MDA-MB-231, 93.2 µM. Moreover, in the experiment with Chorioallantoic membrane, the outcome was Active.

For `O=C(Nc1cccc(Nc2ccc([N+](=O)[O-])c3ncnc(O)c23)c1)c1cccc(Cl)c1`, the results for the inhibition in experiment [1] and in experiment [2] were 26.3% and 29.2%, respectively. For the same compound, the IC50 in the experiment on HUVEC is 86.5 µM; in the experiment on HepG2, 93 µM; with A549, > 100 µM; in the experiment on MDA-MB-231, > 100 µM.

For `O=C(Nc1cccc(Nc2ccc([N+](=O)[O-])c3ncnc(O)c23)c1)c1ccccc1F`, the inhibition in experiment [1] came out at 17.2%; in experiment [2] it was 35.8%. Moreover, the IC50 was 70.4 µM in the experiment with HUVEC, 69.6 µM with HepG2, > 100 µM in the experiment with A549 and > 100 µM in the experiment with MDA-MB-231.

Regarding `CNC(=O)c1cc(Oc2ccc(NC(=O)Nc3ccc(Cl)c(C(F)(F)F)c3)cc2)ccn1` [SORAFENIB], the IC50 in the experiment with HUVEC worked out at 4.1 µM; in the experiment on HepG2, 3.6 µM; with A549, 8.1 µM; in the experiment on MDA-MB-231 it was 15.8 µM; in the experiment on L02, 72.9 µM. In the experiment with Chorioallantoic membrane, the outcome was Active.

On to `COc1ccccc1C(=O)Nc1ccc(Nc2ccc([N+](=O)[O-])c3ncnc(O)c23)cc1`, for which the inhibition in experiment [1] turned out to be 43.6%; in experiment [2], 60.3%. The IC50 in the experiment with HUVEC is 36.3 µM; in the experiment with HepG2, 40.7 µM; in the experiment on A549 it was > 100 µM; in the experiment with MDA-MB-231, 95.8 µM.

As to `COc1cccc(C(=O)Nc2ccc(Nc3ccc([N+](=O)[O-])c4ncnc(O)c34)cc2)c1`, the inhibition in experiment [1] was 36.7%; in experiment [2] it was 47.6%. Besides, the IC50 in the experiment on HUVEC is 57.8 µM; in the experiment on HepG2, 64.2 µM; with A549, > 100 µM; in the experiment with MDA-MB-231, > 100 µM.

Turning to `Cc1ccccc1C(=O)Nc1ccc(Nc2ccc([N+](=O)[O-])c3ncnc(O)c23)cc1`, the values for the inhibition in experiment [1] and in experiment [2] were 41.7% and 65.8%, respectively. Further, the IC50 in the experiment with HUVEC was 37.2 µM; with HepG2 it was 30.1 µM; in the experiment on A549, 91.6 µM; in the experiment on MDA-MB-231 it was > 100 µM.

As to `O=C(Nc1cccc(Nc2ccc([N+](=O)[O-])c3ncnc(O)c23)c1)c1cccc(F)c1`, the figures for the inhibition in experiment [1] and in experiment [2] were 27.3% and 38.1%, respectively. Besides, the IC50 with HUVEC is 74.2 µM; with HepG2 it was 72.1 µM; in the experiment with A549, > 100 µM; in the experiment on MDA-MB-231, > 100 µM.

For `O=C(Nc1cccc(Nc2ccc([N+](=O)[O-])c3ncnc(O)c23)c1)c1ccccc1`, the inhibition came to 15.4% in experiment [1] and 37.8% in experiment [2]. Further, the IC50 with HUVEC is 79.1 µM; in the experiment on HepG2, 75.2 µM; in the experiment on A549 it was > 100 µM; with MDA-MB-231, > 100 µM.

Turning to `Cc1cccc(C(=O)Nc2cccc(Nc3ccc([N+](=O)[O-])c4ncnc(O)c34)c2)c1`, the inhibition came to 11.3% in experiment [1] and 18% in experiment [2]. Besides, the IC50 is 93.6 µM in the experiment with HUVEC, > 100 µM in the experiment with HepG2, > 100 µM in the experiment on A549 and > 100 µM in the experiment on MDA-MB-231.

In the case of `COc1ccccc1C(=O)Nc1cccc(Nc2ccc([N+](=O)[O-])c3ncnc(O)c23)c1`, the inhibition in experiment [1] was 12.4%; in experiment [2], 26.9%. Moreover, the IC50 in the experiment on HUVEC was 82 µM; in the experiment with HepG2, 90.3 µM; in the experiment with A549 it was > 100 µM; in the experiment with MDA-MB-231, > 100 µM.

`O=C(Nc1cccc(Nc2ccc([N+](=O)[O-])c3ncnc(O)c23)c1)c1ccc(F)cc1`: the values for the inhibition in experiment [1] and in experiment [2] were 18.5% and 41.9%, respectively. Also, the IC50 in the experiment with HUVEC was 63.2 µM; in the experiment with HepG2, 68.5 µM; with A549 it was 95 µM; in the experiment with MDA-MB-231, > 100 µM.

With `Cc1ccc(C(=O)Nc2cccc(Nc3ccc([N+](=O)[O-])c4ncnc(O)c34)c2)cc1`, the inhibition was found to be 12.8% in experiment [1] and 32.7% in experiment [2]. Moreover, the IC50 is 80.5 µM with HUVEC, 74 µM with HepG2, > 100 µM in the experiment with A549 and > 100 µM in the experiment with MDA-MB-231.
